Among the data in patent publication US12240862B2, “Inhibitors of peptidylarginine deiminases” (Gilead Sciences, Inc., priority 2020, dated 2025) are IC50 values, retold here.

Broadly, the IC50 is the concentration at which inhibition is half-maximal.

The target of the assay is T1, human PAD4 (Homo sapiens, UniProt Q9UM07).
T1 construct: human PAD4 (NM_012387), A2P663, was PCR amplified; His-SUMO (N, cleaved yes); made in house; host or cells: E. coli BL21(DE3)
T1 sequence (Q9UM07 2-663): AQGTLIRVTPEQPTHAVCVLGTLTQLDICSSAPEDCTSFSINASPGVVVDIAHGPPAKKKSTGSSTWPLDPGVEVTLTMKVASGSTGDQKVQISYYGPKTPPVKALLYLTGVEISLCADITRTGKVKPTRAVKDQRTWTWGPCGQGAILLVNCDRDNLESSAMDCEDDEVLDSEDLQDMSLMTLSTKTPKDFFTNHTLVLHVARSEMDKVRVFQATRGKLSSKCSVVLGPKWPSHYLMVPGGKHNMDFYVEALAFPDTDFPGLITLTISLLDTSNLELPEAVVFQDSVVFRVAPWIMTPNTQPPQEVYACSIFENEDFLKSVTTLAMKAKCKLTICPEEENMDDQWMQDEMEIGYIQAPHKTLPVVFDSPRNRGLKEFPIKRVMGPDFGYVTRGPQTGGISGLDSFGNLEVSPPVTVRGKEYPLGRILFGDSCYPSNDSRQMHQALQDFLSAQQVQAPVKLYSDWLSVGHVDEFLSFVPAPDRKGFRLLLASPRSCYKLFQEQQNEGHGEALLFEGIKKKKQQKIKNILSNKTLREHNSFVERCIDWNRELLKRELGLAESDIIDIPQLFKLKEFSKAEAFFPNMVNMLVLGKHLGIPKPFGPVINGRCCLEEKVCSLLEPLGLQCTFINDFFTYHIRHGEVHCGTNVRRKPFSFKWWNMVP
The assay can be described thus: In vitro PAD4 BAEE biochemical assay. The settings on record: human PAD4, BAEE substrate; 5 nM PAD4, 2 mM calcium chloride, 3 mM BAEE; geometric mean of multiple experiments. The procedure, abridged: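 Tag-free recombinant hPAD4 (5 nM), 2 mM CaCl2, 3 mM BAEE, 50 mM MOPS pH 7.6, 2 mM DTT; 30 min compound preincubation, 2 h reaction, all 25 °C. EDTA quench; ammonia read via o-phthalaldehyde amine coupling, 1 h.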
`COc1cc(C(=O)N2C[C@H]3C[C@H](O)[C@@H]2[C@@H]3N)cc2nc(-c3cc4ccc([C@@H](C)NC(=O)C(C)(C)C)nc4n3CC3CC3)c(C)n12` [Example 173, N-((R)-1-(2-(7-((1S,4R,6S,7R)-7-amino-6-hydroxy-2-azabicyclo [2.2.1]heptane-2-carbonyl)-5-methoxy-3-methylimidazo [1,2-a]pyridin-2-yl)-1-(cyclopropylmethyl)-1H-pyrrolo[2,3-b]pyridin-6-yl)ethyl)pivalamide]: the IC50 is 497 nM.

Turning to `COc1cc(C(=O)N2CCC[C@@H](N)C2)cc2nc(-c3cc4ccc(N(C(F)F)S(C)(=O)=O)nc4n3CC3CC3)c(CC(C)C)n12` [Example 430, ~{N}-[2-[7-[(3~{R})-3-aminopiperidine-1-carbonyl]-5-methoxy-3-(2-methylpropyl)imidazo [1,2-a]pyridin-2-yl]-1-(cyclopropylmethyl)pyrrolo [2,3-b]pyridin-6-yl]-~{N}-(difluoromethyl) methanesulfonamide], the IC50 came to 943 nM.

For the compound `COc1cc(C(=O)N2[C@H]3CC[C@@H]2[C@H](N)C3)cc2nc(-c3cc4ccc([C@@H](C)NC(=O)c5ccc(F)cc5F)nc4n3CC3CC3)c(C)n12` [Example 56, ~{N}-[(1~{R})-1-[2-[7-[(1~{R},2~{R}, 4~{S})-2-amino-7-azabicyclo[2.2.1]heptane-7-carbonyl]-5-methoxy-3-methylimidazo[1,2-a]pyridin-2-yl]-1-(cyclopropylmethyl)pyrrolo[2,3-b]pyridin-6-yl]ethyl]-2,4-difluorobenzamide], the half-maximal inhibitory concentration (IC50) amounted to 254 nM.

Consider `CCc1ccc2cc(-c3nc4cc(C(=O)N5[C@H]6CC[C@@H]5[C@H](N)C6)cc(OC)n4c3C)n(CCO)c2n1` [Example 497, [(1~{R},2~{R},4~{S})-2-amino-7-azabicyclo [2.2.1]heptan-7-yl]-[2-[6-ethyl-1-(2-hydroxyethyl)pyrrolo[2,3-b]pyridin-2-yl]-5-methoxy-3-methylimidazo [1,2-a]pyridin-7-yl]methanone], for which the IC50 came to 1230 nM.

As for `COc1cc(C(=O)N2[C@H]3CC[C@@H]2[C@H](N)C3)cc2nc(-c3cc4ccc([C@@H](C)NC(=O)N5CC(C(=O)O)C5)nc4n3CC3CC3)c(C)n12` [Example 237], the IC50 was found to be 35.6 nM.

Consider `COc1cc(C(=O)N2CCCC(C)(N)C2)cc2nc(-c3cc4ccc([C@@H](C)NC(=O)C56CC(F)(C5)C6)nc4n3CC3CC3)c(C3CC3)n12` (stereo partly shown) [Example 124, ~{N}-[(1~{R})-1-[2-[7-(3-amino-3-methylpiperidine-1-carbonyl)-3-cyclopropyl-5-methoxyimidazo [1,2-a]pyridin-2-yl]-1-(cyclopropylmethyl)pyrrolo [2,3-b]pyridin-6-yl]ethyl]-3-fluorobicyclo[1.1.1]pentane-1-carboxamide], for which the IC50 worked out at 13000 nM.

For `COc1cc(C(=O)N2[C@H]3CC[C@@H]2[C@H](N)C3)cc2nc(-c3cc4ccc([C@@H](C)NC(=O)N5CC6CC(C5)O6)nc4n3CC3CC3)c(C)n12` [Example 211, ~{N}-[(1~{R})-1-[2-[7-[(1~{R},2~{R},4~{S})-2-amino-7-azabicyclo[2.2.1]heptane-7-carbonyl]-5-methoxy-3-methylimidazo [1,2-a]pyridin-2-yl]-1-(cyclopropylmethyl)pyrrolo [2,3-b]pyridin-6-yl]ethyl]-6-oxa-3-azabicyclo [3.1.1]heptane-3-carboxamide], the IC50 was determined as 31.6 nM.

`COC(=O)N[C@H](C)c1ccc2cc(-c3nc4cc(C(=O)N5CCC[C@@H](N)C5)cc(OC)n4c3C)n(CC3CC3)c2n1` [Example 258]: the IC50 amounted to 225 nM.

Consider `COc1cc(C(=O)N2[C@H]3CC[C@@H]2[C@H](N)C3)cc2nc(-c3cc4ccc([C@H]5CCNC(=O)C5)nc4n3CC3CC3)c(C)n12` [Example 554, (4~{S})-4-[2-[7-[(1~{R}, 2~{R},4~{S})-2-amino-7-azabicyclo[2.2.1]heptane-7-carbonyl]-5-methoxy-3-methylimidazo [1,2-a]pyridin-2-yl]-1-(cyclopropylmethyl)pyrrolo [2,3-b]pyridin-6-yl]piperidin-2-one], for which the IC50 worked out at 81 nM.

Take `CCc1ccc2cc(-c3nc4cc(C(=O)N5[C@H]6CC[C@@H]5[C@H](N)C6)cc(OC)n4c3C)n(CC(F)(F)F)c2n1` [Example 504, [(1~{R},2~{R},4~{S})-2-amino-7-azabicyclo [2.2.1]heptan-7-yl]-[2-[6-ethyl-1-(2,2,2-trifluoroethyl)pyrrolo[2,3-b]pyridin-2-yl]-5-methoxy-3-methylimidazo[1,2-a]pyridin-7-yl]methanone]: the IC50 was determined as 132 nM.

As to `COc1cc(C(=O)N2[C@H]3CC[C@@H]2[C@H](N)C3)cc2nc(-c3cc4ccc([C@@H](C)Nc5ccccn5)nc4n3CC3CC3)c(C)n12` [Example 261, [(1~{R},2~{R},4~{S})-2-amino-7-azabicyclo [2.2.1]heptan-7-yl]-[2-[1-(cyclopropylmethyl)-6-[(1~{R})-1-(pyridin-2-ylamino)ethyl]pyrrolo[2,3-b]pyridin-2-yl]-5-methoxy-3-methylimidazo[1,2-a]pyridin-7-yl]methanone], the 50% inhibitory concentration (IC50) was 144 nM.

For the compound `COc1cc(C(=O)N2C[C@H]3CC[C@@H]2[C@@H]3N)cc2nc(-c3cc4ccc([C@@H](C)Nc5ncccn5)nc4n3CC3CC3)c(C)n12` [Example 266, ((1R,4R,7R)-7-amino-2-azabicyclo[2.2.1]heptan-2-yl)(2-(1-(cyclopropylmethyl)-6-((R)-1-(pyrimidin-2-ylamino)ethyl)-1H-pyrrolo[2,3-b]pyridin-2-yl)-5-methoxy-3-methylimidazo [1,2-a]pyridin-7-yl) methanone], the IC50 amounted to 341 nM.

Take `CCc1ccc2cc(-c3nc4cc(C(=O)N5[C@H]6CC[C@@H]5[C@H](N)C6)cc(OC)n4c3C)n(C[C@@H]3C[C@@H]3C(F)(F)F)c2n1` [Example 501]: the IC50 was found to be 827 nM.

Consider `COc1cc(C(=O)N2CC[C@@H]3C[C@]3(N)C2)cc2nc(-c3cc4ccc(N(C(F)F)S(C)(=O)=O)nc4n3CC3CC3)c(C)n12` [Example 363, ~{N}-[2-[7-[(1~{R},6~{R})-1-amino-3-azabicyclo[4.1.0]heptane-3-carbonyl]-5-methoxy-3-methylimidazo[1,2-a]pyridin-2-yl]-1-(cyclopropylmethyl)pyrrolo [2,3-b]pyridin-6-yl]-~{N}-(difluoromethyl) methanesulfonamide], for which the IC50 came out at 1960 nM.

As to `COc1cc(C(=O)N2[C@H]3CC[C@@H]2[C@H](N)C3)cc2nc(-c3cc4ccc(C(C)(C)CC(=O)N5CC(F)(F)C5)nc4n3CC3CC3)c(C)n12` [Example 538, 3-[2-[7-[(1~{R},2~{R}, 4~{S})-2-amino-7-azabicyclo[2.2.1]heptane-7-carbonyl]-5-methoxy-3-methylimidazo[1,2-a]pyridin-2-yl]-1-(cyclopropylmethyl)pyrrolo [2,3-b]pyridin-6-yl]-1-(3,3-difluoroazetidin-1-yl)-3-methylbutan-1-one], the IC50 was determined as 175 nM.

As for `COc1cc(C(=O)N2[C@H]3CC[C@@H]2[C@H](N)C3)cc2nc(-c3cc4ccc([C@@H](C)NC(=O)N5CC(F)(F)C5)nc4n3CC3CC3)c(C)n12` [Example 232, N—((R)-1-(2-(7-((1R,2R,4S)-2-amino-7-azabicyclo[2.2.1]heptane-7-carbonyl)-5-methoxy-3-methylimidazo[1,2-a]pyridin-2-yl)-1-(cyclopropylmethyl)-1H-pyrrolo[2,3-b]pyridin-6-yl)ethyl)-3,3-difluoroazetidine-1-carboxamide], the IC50 is 68.5 nM.
